We go through 39 molecules from ChEMBL document CHEMBL3217486, “Novel indolizine compounds as potent inhibitors of phosphodiesterase IV (PDE4): structureactivity relationship” (Medchemcomm, 2011).

The structures appear in SMILES notation.

The target of this test is Phosphodiesterase 4 (Homo sapiens, UniProt P27815+Q08499+Q07343+Q08493). In words: Inhibition of PDE4 isolated from human U937 cells using [3H]-cAMP as substrate after 30 mins by liquid scintillation counting analysis. The test is classed as cell-free. The settings on record: u-937.

A word on the IC50: it is the concentration at which inhibition is half-maximal. Read a low IC50 as higher potency. `O=C(Nc1cccnc1)C(=O)c1cc(Cc2ccccc2)n2ccccc12` gave an IC50 of 348 nM.
As to `O=C(Nc1cccnc1)C(=O)c1cc(Cc2ccc(F)cc2)n2ccccc12`, the IC50 is listed as 341 nM.
`O=C(Nc1cccnc1)C(=O)c1cc(Cc2ccc(Cl)cc2)n2ccccc12` showed an IC50 of 165 nM.
The same measure for `COc1ccc(Cc2cc(C(=O)C(=O)Nc3cccnc3)c3ccccn23)cc1`: 447 nM; for `O=C(Nc1cccnc1)C(=O)c1cc(Cc2ccc(O)cc2)n2ccccc12`: 327 nM; for `O=C(Nc1cccnc1)C(=O)c1cc(Cc2ccc([N+](=O)[O-])cc2)n2ccccc12`: 569 nM.
Regarding `Nc1ccc(Cc2cc(C(=O)C(=O)Nc3cccnc3)c3ccccn23)cc1`, the IC50 is reported as 824 nM.
The same measure for `N#Cc1ccc(Cc2cc(C(=O)C(=O)Nc3cccnc3)c3ccccn23)cc1`: 719 nM; for `O=C(Nc1cccnc1)C(=O)c1cc(Cc2ccc(C(F)(F)F)cc2)n2ccccc12`: 372 nM; for `CC(C)c1ccc(Cc2cc(C(=O)C(=O)Nc3cccnc3)c3ccccn23)cc1`: 362 nM.
Molecule `O=C(Nc1cccnc1)C(=O)c1cc(Cc2ccc(F)cc2)n2ccc(O)cc12` yielded an IC50 of 414 nM.
`O=C(Nc1cccnc1)C(=O)c1cc(Cc2ccc(F)cc2)n2ccc(Cl)cc12`: the IC50 was determined as 239 nM.
`COc1ccn2c(Cc3ccc(Cl)cc3)cc(C(=O)C(=O)Nc3cccnc3)c2c1` yielded an IC50 of 1000 nM.
To `N#Cc1ccc(Cc2cc(C(=O)C(=O)Nc3cccnc3Cl)c3ccccn23)cc1` belongs 4700 nM.
In the case of `O=C(Nc1c(Cl)ccnc1Cl)C(=O)c1cc(Cc2ccc(Cl)cc2)n2ccccc12`, the IC50 worked out at 84 nM.
`N#Cc1ccc(Cc2cc(C(=O)C(=O)Nc3c(Cl)ccnc3Cl)c3ccccn23)cc1`: the IC50 is on record as 250 nM.
`O=C(Nc1c(Br)ccnc1Br)C(=O)c1cc(Cc2ccc(F)cc2)n2ccccc12`: the IC50 was 10000 nM.
Turning to `COc1ccnc(OC)c1NC(=O)C(=O)c1cc(Cc2ccc(C#N)cc2)n2ccccc12`, the IC50 was 10000 nM.
In turn, `COc1ccc(NC(=O)C(=O)c2cc(Cc3ccc(C#N)cc3)n3ccccc23)cn1` returned an IC50 of 1500 nM.
The same measure for `N#Cc1ccc(Cc2cc(C(=O)C(=O)Nc3c(Cl)cncc3Cl)c3ccccn23)cc1`: 116 nM.
As to `O=C(Nc1c(Cl)cncc1Cl)C(=O)c1cc(Cc2ccc(Cl)cc2)n2ccccc12`, the IC50 was 16 nM.
Molecule `COc1ccc(Cc2cc(C(=O)C(=O)Nc3c(Cl)cncc3Cl)c3ccccn23)cc1` returned an IC50 of 40 nM.
As for `O=C(Nc1c(Cl)cncc1Cl)C(=O)c1cc(Cc2ccc(O)cc2)n2ccccc12`, the IC50 is reported as 15 nM.
In turn, `O=C(Nc1c(Cl)cncc1Cl)C(=O)c1cc(Cc2ccc(Cl)cc2)n2ccc(Cl)cc12` came in with an IC50 of 26 nM.
In turn, `O=C(Nc1c(Cl)cncc1Cl)C(=O)c1cc(Cc2ccc(F)cc2)n2ccc(Cl)cc12` showed an IC50 of 28 nM.
As to `O=C(Nc1c(Cl)cncc1Cl)C(=O)c1cc(Cc2ccc(F)cc2)n2ccc(F)cc12`, the IC50 was found to be 13 nM.
`O=C(Nc1c(Cl)cncc1Cl)C(=O)c1cc(Cc2ccc(O)cc2)n2ccc(Cl)cc12` displayed an IC50 of 2 nM.
The molecule `COc1ccc(Cc2cc(C(=O)C(=O)Nc3c(Cl)cncc3Cl)c3cc(Cl)ccn23)cc1` yielded an IC50 of 12 nM.
`N#Cc1ccc(Cc2cc(C(=O)C(=O)Nc3c(Cl)cncc3Cl)c3cc(Cl)ccn23)cc1`: the IC50 is on record as 82 nM.
Molecule `O=C(Nc1c(Cl)c[n+]([O-])cc1Cl)C(=O)c1cc(Cc2ccc(F)cc2)n2ccc(Cl)cc12` gave a half-inhibitory concentration (IC50) of 54 nM.
To `O=C(Nc1c(Cl)c[n+]([O-])cc1Cl)C(=O)c1cc(Cc2ccc(F)cc2)n2ccc(F)cc12` belongs 18 nM.
`O=C(Nc1c(Cl)c[n+]([O-])cc1Cl)C(=O)c1cc(Cc2ccc(Cl)cc2)n2ccccc12` showed an IC50 of 19 nM.
To `COc1ccc(Cc2cc(C(=O)C(=O)Nc3c(Cl)c[n+]([O-])cc3Cl)c3ccccn23)cc1` belongs 80 nM; to `O=C(Nc1c(Cl)c[n+]([O-])cc1Cl)C(=O)c1cc(Cc2ccc(O)cc2)n2ccccc12`, 29 nM.
The same measure for `O=C(Nc1c(Cl)cccc1Cl)C(=O)c1cc(Cc2ccc(F)cc2)n2ccccc12`: 10000 nM.
`O=C(Nc1c(Cl)cc(C(F)(F)F)cc1Cl)C(=O)c1cc(Cc2ccc(F)cc2)n2ccccc12` yielded an IC50 of 10000 nM.
Molecule `O=C(Nc1c(Cl)cncc1Cl)C(=O)c1cc(Cc2ccc(F)cc2)c2ccccn12` returned an IC50 of 6 nM.
For the molecule `O=C(Nc1c(Cl)c[n+]([O-])cc1Cl)C(=O)c1cc(Cc2ccc(F)cc2)c2ccccn12`, the IC50 is on record as 29 nM.
As for `O=C(Nc1c(Cl)cncc1Cl)C(=O)c1cn(Cc2ccc(F)cc2)c2ccc(O)cc12` [AWD-12-281], the IC50 came out at 14 nM.
